Test results taken from paper PMC7351026, “Serum Half-Lives for Short- and Long-Chain Perfluoroalkyl Acids after Ceasing Exposure from Drinking Water Contaminated by Firefighting Foam” (Environmental Health Perspectives, 2020).
Several values for one entry are separate records, joined by “and”; a condition that tells them apart may be missing. Equal values may be shown once. Read-outs that look alike come from different tables or passages of the source. Marks after values point to notes of the source that are not given here.

Legend:
[1] = Population average serum elimination rate and half-life (linear mixed model, one compartment, first-order); conditions: for Constant elimination rate (95% CI) / Half-life (95% CI) / half-life / Average serum half-life: population average; for Reduction of half-life estimation after subtraction of background levels: sensitivity analysis vs model with original serum levels; for half-life: serum, oral
Experimental: Serum PFAS concentrations were log-transformed. Time was calculated as the elapsed days between supply of clean bottled water and […] blood sampling. We assumed one compartment, first-order elimination kinetics. In this kinetic model, the body is considered as one homogeneous volume in which mixing is instantaneous and from which PFAS could be absorbed, transferred, and eliminated according to the rate of elimination that is proportional to the concentration of PFAS in the body. Two methods were used to estimate serum elimination rate constant (k) and half-life for each PFAS:
Briefly, in the linear mixed model In Cij=αi+tijβ+Xiβ′+εij, Cij is the serum concentration of PFAS for individual i at sampling round j; αi is the subject-specific intercept (random intercept); tij is the time; β is the average slope; Xi is a vector of fixed covariates for individual i; β′ stands for the fixed effect coefficients; and εij is the random error term. We modified the model by excluding the subject-specific slope (random slope) due to a failure to converge after inclusion, which may be due to the limited number of study subjects. The negative value of the average slope ( −β ) is the population average k, and average half-life is calculated as ln2/k .
In the linear mixed model, we included only age and sex as covariates. We based covariate selection on factors that could conceivably confound the PFAS half-life estimation. Working task, duration of employment, number of glasses of water per day, blood donation, and pregnancy before mitigation of PFAS exposure from drinking water can influence the initial serum levels but would not be expected to influence the PFAS half-life.
A sensitivity analysis was performed using the same linear mixed model but with Cij as the serum levels after subtracting general background levels (using the median levels obtained from the nonexposed reference population). If the serum PFAS levels after subtraction were lower than the half of the background levels, they were replaced with half of the background levels.

Serum/water ratio = format: in vivo, human; conditions: median serum level of first samples (26 employees) divided by airport drinking-water level
Experimental: The ratio of serum and water concentration for each PFAS (serum/water ratio) was calculated based on median serum level in the first serum sample obtained from all 26 airport employees divided by the drinking-water concentration. This ratio is an indicator of PFAS accumulation in body.

[2] = Urine/serum ratio in paired samples; format: in vivo, human; conditions: for Personal average urine/serum ratio, median (range): mean of four paired samplings per subject, 17 airport employees
Experimental: Urinary PFAS concentrations were specific-gravity adjusted. The ratio of urine and serum concentration for each PFAS (urine/serum ratio) at each sampling was calculated based on PFAS concentrations in paired serum and urine samples from 17 employees. Then the personal average urine/serum ratio was calculated using the mean value of repeated samplings for each employee.

[3] = cited from earlier work; for Estimated half-life (geometric mean): Chinese population, from renal clearance of single paired serum and urine samples, ref Zhang et al. 2013
[4] = model with original serum levels, age and sex as covariates
[5] = model with serum levels after subtraction of background exposure (sensitivity analysis)
[6] = general Swedish population (Ronneby, 106 Swedes) with high exposure through drinking water, 2 y follow-up from 6 months after clean water, ref Li et al. 2018
[7] = human, Half-life (95% CI), model with original serum levels, age and sex as covariates
[8] = linear mixed model with original serum levels, 17 airport employees after end of drinking-water exposure
[9] = highly exposed general population from Ronneby, Sweden, 108 Swedes, 5 y follow-up, ref Li et al. 2019
[10] = human, Half-life (95% CI), model with serum levels after subtraction of background exposure (sensitivity analysis)

Molecule	Constant elimination rate (95% CI) [1, 4]	Half-life (95% CI) [1, 4]	Constant elimination rate (95% CI) [1, 5]	Half-life (95% CI) [1, 5]	Serum/water ratio (Serum/water ratio)	Personal average urine/serum ratio, median (range) [2]	also measured
O=S(=O)(O)C(F)(C(F)(F)F)C(F)(F)C(F)(F)C(F)(F)C(F)(F)C(F)(F)C(F)(F)F (stereo not shown) [1m-PFOS, perfluoro-1-methylheptanesulfonate]	0.55 (0.09, 1.01) yearly	1.27 (0.69, 7.64) year	0.75 (0.15, 1.36) yearly	0.92 (0.51, 4.77) year	–	–	–
O=S(=O)(O)C(F)(F)C(F)(F)C(F)(F)C(F)(F)C(F)(F)C(F)(F)C(F)(F)C(F)(F)F [L-PFOS, linear perfluorooctane sulfonic acid]	0.24 (0.07, 0.4) yearly	2.91 (1.71, 9.63) year	0.41 (0.11, 0.71) yearly	1.69 (0.98, 6.04) year	153	0.00092 (0.000035–0.0056)	Reduction of half-life estimation after subtraction of background levels [1]: 42%; Average half-life [3, 6]: 3.4 y
O=S(=O)(O)C(F)(F)C(F)(F)C(F)(F)C(F)(F)F [PFBS, perfluorobutane sulfonic acid]	5.96 (4.65, 7.27) yearly	0.12 (0.1, 0.15)^d year	–	–	1.65	–	Half-life (geometric mean) ([3]; occupationally exposed workers followed up to 180 d, ref Olsen et al. 2009): 25.8 days
O=C(O)C(F)(F)C(F)(F)C(F)(F)C(F)(F)C(F)(F)C(F)(F)F [PFHpA, perfluoroheptanoic acid]	4.11 (3.13, 5.09) yearly	–	–	–	4.74	0.086 (0.018–0.32)	half-life ([1]; human, Average serum half-life, linear mixed model with original serum levels, 17 airport employees after end of drinking-water exposure): 62 days; half-life [1, 7]: 62.1 days; Estimated half-life (geometric mean) ([3]; older females plus males): 1.0 y; Estimated half-life (geometric mean) ([3]; young females): 0.82 y; First-order apparent elimination half-life (geometric mean) ([3]; whole blood, five ski wax technicians, 7 months follow-up, ref Russell et al. 2015a): 70 days
O=S(=O)(O)C(F)(F)C(F)(F)C(F)(F)C(F)(F)C(F)(F)C(F)(F)C(F)(F)F [PFHpS, perfluoroheptane sulfonic acid]	0.48 (0.11, 0.84) yearly	1.46 (0.83, 6.25) year	0.51 (0.12, 0.9) yearly	1.35 (0.77, 5.71) year	81.3	–	Average half-life longer than that of the PFCA with same number of carbon atoms ([1]; PFHpS vs PFHpA, PFOS vs PFOA): ~1.3 y; Average serum half-life [1, 8]: 1.46 y; Reduction of half-life estimation after subtraction of background levels [1]: 8%; Average half-life [3, 9]: 4.7 y
O=C(O)C(F)(F)C(F)(F)C(F)(F)C(F)(F)C(F)(F)F [PFHxA, perfluorohexanoic acid]	–	1.63 (NA) year	–	–	1.15	–	Apparent elimination half-life ([3]; whole blood, seven ski wax technicians, ref Russell et al. 2013): 32 days
O=S(=O)(O)C(F)(F)C(F)(F)C(F)(F)C(F)(F)C(F)(F)C(F)(F)F [PFHxS, perfluorohexane sulfonic acid]	0.24 (0.16, 0.33) yearly	–	0.24 (0.16, 0.33) yearly	–	107	0.00093 (0.0006–0.0018)	half-life [1, 7]: 1040 days; half-life [1, 10]: 1040 days; Average half-life [3, 6]: 5.3 y
O=C(O)C(F)(F)C(F)(F)C(F)(F)C(F)(F)C(F)(F)C(F)(F)C(F)(F)F [PFOA, perfluorooctanoic acid]	0.39 (0.3, 0.49) yearly	–	0.47 (0.35, 0.58) yearly	–	30.3	0.0032 and 0.0032 (0.00066–0.0067)	half-life [1, 7]: 646 days; half-life [1, 10]: 541 days; Average serum half-life [1, 8]: 1.77 y; Reduction of half-life estimation after subtraction of background levels [1]: 16%; Average half-life ([3]; 26 retired fluorochemical production workers, 5-y follow-up, ref Olsen et al. 2007): 3.8 y; half-life ([3]; 138 Germans, 2-y follow-up, ref Brede et al. 2010): 3.3 y; half-life ([3]; 200 Americans, 1-y follow-up, ref Bartell et al. 2010): 2.3 y; Average half-life [3, 6]: 2.7 y
O=S(=O)(O)C(F)(F)C(F)(F)C(F)(F)C(F)(F)C(F)(F)F [PFPeS, perfluoropentane sulfonic acid]	1.1 (0.68, 1.51) yearly	0.63 (0.46, 1.01) year	1.1 (0.68, 1.52) yearly	0.63 (0.46, 1.01) year	38.3	0.0089 (0.0057–0.026)	Half-life shorter than L-PFOS ([1]; human, in vivo): 4 times; Urine/serum ratio higher than L-PFOS ([2]; in vivo): 10 times; Average half-life [3, 9]: 1.0 y
Perfluoro-2/6-methylheptanesulfonate [2/6m-PFOS]	0.66 (0.29, 1.04) yearly	1.04 (0.67, 2.42) year	0.95 (0.39, 1.5) yearly	0.73 (0.46, 1.76) year	–	0.0051 (0.00059–0.032)	–
perfluoro-3/4/5-methylheptanesulfonate [3/4/5m-PFOS]	0.64 (0.18, 1.1) yearly	1.09 (0.63, 3.96) year	0.83 (0.24, 1.42) yearly	0.83 (0.49, 2.84) year	–	–	–
